Measured values published in PMC10388311, “Innovative Strategy toward Mutant CFTR Rescue in Cystic Fibrosis: Design and Synthesis of Thiadiazole Inhibitors of the E3 Ligase RNF5” (Journal of Medicinal Chemistry, 2023).
≈ marks a conversion by molar mass, not a printed value.

Legend:
[1] = system: ATG4B-mediated basal autophagy in F508del-CFTR-expressing CFBE41o– cells; test: Labeling of autophagic vacuoles with monodansylcadaverine (MDC); format: cell-based, human; conditions: test compounds 5 μM 24 h; torin-1 20 nM and SAR-405 2 μM in the last 3 h
Excerpt: To further support our hypothesis that CFTR rescue following treatment with test compounds was indeed due to RNF5 inhibition, we considered additional biological processes known to be regulated by RNF5 ligase activity. To this aim, we focused our attention on ATG4B, a known regulator of basal autophagy, whose degradation is mediated by RNF5 activity.[54]In vivo ubiquitination experiments previously confirmed that inh-2 inhibits ATG4B degradation, thus increasing the basal level of autophagy.[40] […] We thus evaluated the effect of inh-2 analogues on induction of the autophagy pathway. To this aim, we monitored the formation of autophagic vacuoles in F508del-CFTR-expressing CFBE41o^– cells (Figure 8) by using the autolysosome marker monodansylcadaverine (MDC). MDC accumulates inside autophagosomes. After fusion of autophagosomes with lysosomes, MDC fluorescence increases due to the acidic environment.[55] Therefore, F508del-CFTR-expressing CFBE41o^– cells were treated for 24 h with test compounds (5 μM), VX-809 (1 μM), or DMSO alone (vehicle). In the last 3 h of incubation, we added torin-1 (20 nM), a known autophagy inducer, and SAR-405 (2 μM), a potent inhibitor of the autophagic pathway. The cells were then loaded with MDC and evaluated by high-content confocal imaging to detect signal spots (corresponding to autophagic vacuoles) in each cell.
CFBE41o^– cells stably expressing F508del-CFTR and the HS-YFP were plated (50,000 cells/well) on good-quality clear-bottom 96-well black microplates suitable for high-content imaging. After 24 h, cells were treated with test compounds or DMSO (as the negative control). […] After 24 h, cells were incubated with 50 μM MDC (Sigma-Aldrich) in PBS at 37 °C for 10 min.[62] After incubation, cells were washed three times with PBS and immediately analyzed. High-content imaging and data analysis were performed using the Opera Phenix (PerkinElmer) high-content screening system. Wells were imaged in confocal mode using a 40× water-immersion objective. The MDC signal was laser-excited at 405 nm, and the emission wavelengths were collected between 435 and 550 nm. Data analysis of MDC spot number was performed using the Harmony software (ver 4.5) of the Opera Phenix high-content system. Data are expressed as means ± SEM, n = 3 independent experiments. Statistical significance was tested by parametric ANOVA followed by the Dunnet multiple comparisons test (all groups against the control group).

[2] = Solubility and aggregation in PBS buffer by NMR (SPAM filter, 1H 1D and WaterLOGSY); format: physicochemical; conditions: PBS pH 7.5, 1 μM ZnCl2, 1 mM DTT, 10% D2O, 1% DMSO-d6; for solubility: PBS buffer, aqueous buffer, kinetic from dmso stock, theoretical concentration 20 μM, read-out: solubility in PBS buffer by NMR, 20 μM; for aggregation in PBS buffer by NMR: WaterLOGSY
Excerpt: Under these circumstances, it was decided to explore the solubility of all the synthetized compounds, regardless of their biological activities, to find a suitable candidate for the validation of our working hypothesis, i.e., that the compounds exert their activities by directly binding to RNF5. For that, we first calculated the predicted octanol/water partition coefficient (log Po/w) and the predicted aqueous solubility (log S) of all the analogues by QikProp (Schrödinger Release 2022-1: QikProp, Schrödinger, LLC, New York, NY, 2021, Table S1). […] To shrink down the number of compounds for solubility experiments, just the ones that had −2.0 < log Po/w < 6 and −6.5 < log S <0.5 values were selected. Among them, the PBS solubility was determined for five representative analogues: (i) 12 and 29 bearing different substituents on the benzyl group A; (ii) 34 and 40 showing the replacement of rings B and C with pyridine-4-yl moieties; (iii) 42 in which the N-phenylbenzamidine portion was replaced with a pyridine-2-yl moiety (Table 1).
All the NMR experiments were recorded at 298 K using a 5 mm CryoProbe QCI ^1H/^19F–^13C/^15N–D quadruple resonance, a shielded z-gradient coil, and an automatic sample changer SampleJet NMR system with temperature control. The solubility of the compounds were evaluated by ^1H 1D experiments and aggregation by WaterLOGSY, testing the compounds in buffer PBS pH 7,5, 1 μM ZnCl2, 1 mM DTT, 10% D2O (for the lock signal), and 1% DMSO-d6 at the theoretical concentrations of 20, 50, and 100 μM in the presence of 200 μM 4-trifluoromethyl benzoic acid (internal reference). For all samples, a 1D ^1H NMR experiment was recorded, the water suppression was obtained using the standard NOESY (nuclear Overhauser effect spectroscopy) preset Bruker pulse sequence, with 64k data points, a spectral width (sw) of 30 ppm, 64 scans, acquisition time (aq) of 1.835 s, a relaxation delay (d1) of 4 s, and a mixing time of 10 ms. […] The data were multiplied by an exponential window function with 1 Hz line broadening prior to Fourier transformation. For NMR binding experiments, the compounds were tested at 50 μM in buffer PBS pH 7.5, 1 μM ZnCl2, 1 mM DTT, 10% D2O (for the lock signal), and 1% DMSO-d6 in the absence and in the presence of 3 μM RNF5. WaterLOGSY experiments were recorded with the same parameters used in solubility assays, but with a higher number of scans (512); STD experiments were recorded with 128 scans, with two on (0.7 and 1 ppm) and one off (−50 ppm) resonance spectra, a Gaussian-shaped train pulse of 50 ms each was employed, with a total saturation time of the protein envelope of 5, 3, 2, 1.5, 1, or 0.5 s. A T1ρ filter of 2 ms was employed in STD experiments to eliminate the background signals from the protein. The STD spectrum was obtained by subtraction of the on-resonance spectrum from the off-resonance spectrum. Subtraction was performed by phase cycling to minimize artifacts arising from magnet and temperature instabilities.

[3] = target: F508del-CFTR in CFBE41o– cells (Homo sapiens, UniProt Q99942); test: HS-YFP microfluorimetric assay of F508del-CFTR rescue (corrector activity); format: cell-based; conditions: CFBE41o– cells co-expressing F508del-CFTR and HS-YFP, 24 h treatment, Figure 5
F508del-CFTR in CFBE41o– cells, sequence (Q99942 2-180): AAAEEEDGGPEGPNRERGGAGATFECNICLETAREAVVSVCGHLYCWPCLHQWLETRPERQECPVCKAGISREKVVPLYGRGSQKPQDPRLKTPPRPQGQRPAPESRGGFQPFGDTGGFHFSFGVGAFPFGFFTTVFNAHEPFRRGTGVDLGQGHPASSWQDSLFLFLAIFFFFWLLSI
F508del-CFTR in CFBE41o– cells, sequence (P13569 with tags, fused parts or gaps DEL508-508 partner): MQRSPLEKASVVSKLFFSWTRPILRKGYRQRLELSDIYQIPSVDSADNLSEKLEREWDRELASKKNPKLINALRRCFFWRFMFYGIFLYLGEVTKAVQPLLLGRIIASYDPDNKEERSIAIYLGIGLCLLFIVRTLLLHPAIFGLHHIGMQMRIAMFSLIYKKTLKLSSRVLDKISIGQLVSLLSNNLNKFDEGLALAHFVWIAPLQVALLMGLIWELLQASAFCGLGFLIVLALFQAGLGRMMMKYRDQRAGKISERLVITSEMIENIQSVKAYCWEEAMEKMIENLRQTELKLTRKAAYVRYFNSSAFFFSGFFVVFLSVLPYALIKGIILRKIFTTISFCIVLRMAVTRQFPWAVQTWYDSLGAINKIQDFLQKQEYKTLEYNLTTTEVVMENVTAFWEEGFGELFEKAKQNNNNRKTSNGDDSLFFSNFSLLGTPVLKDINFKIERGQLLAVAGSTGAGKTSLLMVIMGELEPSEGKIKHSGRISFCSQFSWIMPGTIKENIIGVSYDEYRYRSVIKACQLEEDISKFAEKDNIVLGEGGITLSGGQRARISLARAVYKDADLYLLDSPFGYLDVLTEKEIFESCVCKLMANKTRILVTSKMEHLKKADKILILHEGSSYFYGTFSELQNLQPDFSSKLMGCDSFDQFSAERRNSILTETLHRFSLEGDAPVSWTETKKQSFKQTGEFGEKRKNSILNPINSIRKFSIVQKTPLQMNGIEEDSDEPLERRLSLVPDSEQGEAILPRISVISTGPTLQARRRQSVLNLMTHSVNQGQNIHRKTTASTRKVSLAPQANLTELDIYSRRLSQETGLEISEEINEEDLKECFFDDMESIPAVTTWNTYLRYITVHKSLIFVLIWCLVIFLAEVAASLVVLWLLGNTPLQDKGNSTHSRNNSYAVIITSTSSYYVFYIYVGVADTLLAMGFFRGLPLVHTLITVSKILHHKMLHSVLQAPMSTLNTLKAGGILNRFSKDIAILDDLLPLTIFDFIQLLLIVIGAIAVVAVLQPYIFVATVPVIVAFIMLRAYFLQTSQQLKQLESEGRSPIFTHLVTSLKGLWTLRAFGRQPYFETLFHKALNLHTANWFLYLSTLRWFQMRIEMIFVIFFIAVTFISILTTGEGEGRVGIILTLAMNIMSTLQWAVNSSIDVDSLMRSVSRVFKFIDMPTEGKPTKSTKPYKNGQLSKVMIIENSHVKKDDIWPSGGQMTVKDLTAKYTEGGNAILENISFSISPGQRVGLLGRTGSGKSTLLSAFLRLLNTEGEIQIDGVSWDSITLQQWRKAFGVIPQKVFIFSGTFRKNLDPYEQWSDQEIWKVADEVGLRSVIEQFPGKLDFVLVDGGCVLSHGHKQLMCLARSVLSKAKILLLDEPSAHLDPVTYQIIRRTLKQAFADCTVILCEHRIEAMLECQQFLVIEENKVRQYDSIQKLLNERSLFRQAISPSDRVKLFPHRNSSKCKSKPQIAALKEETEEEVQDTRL
Procedure: As a primary screen, the new thiadiazole derivatives 1–46 (Table 1) were tested for their ability to rescue the F508del-CFTR trafficking defect in CFBE41o^– cells, stably co-expressing F508del-CFTR and the HS-YFP (Figure 5). This cell line has been extensively used by our group, in combination with the microfluorimetric assay based on the HS-YFP, to identify and characterize many CFTR correctors.[39],[47] This assay relies on the hypothesis that RNF5 inhibition results in increased mutant CFTR processing and activity. Therefore, it can easily identify putative RNF5 inhibitors, but not other types of RNF5-binding compounds that could have no effect or have a negative effect on CFTR function, such as RNF5 activators (see analog-1). Thus, we opted for this assay as our primary aim was the identification of RNF5 inhibitors as a possible therapeutic strategy in CF. Twenty-four hours after seeding on 96-well plates, CFBE41o^– cells stably expressing F508del-CFTR and the HS-YFP were treated with test compounds at the desired concentration, one compound per well. Cells treated with vehicle alone (DMSO) and with corrector VX-809 (1 μM), respectively, served as negative and positive controls. At the time of the assay, cells were washed with PBS containing (in […]) 137 NaCl, 2.7 KCl, 8.1 Na2HPO4, 1.5 KH2PO4, 1 CaCl2, and 0.5 MgCl2. Cells were then incubated for 25 min with […] of PBS plus forskolin (20 μM) and VX-770 (1 μM) to maximally stimulate F508del-CFTR. Cells were then transferred to a microplate reader (FluoStar Galaxy; BMG Labtech, Offenburg, Germany) for CFTR activity determination. The plate reader was equipped with high-quality excitation (HQ500/20X: 500 ± 10 nm) and emission (HQ535/30M: 535 ± 15 nm) filters for YFP (Chroma Technology). Each assay comprised a continuous 14 s fluorescence reading and 2 s before and 12 s after injection of […] of an iodide-containing solution (PBS with Cl^– replaced by I^–; final I^– concentration […]). Data were normalized to the initial background-subtracted fluorescence. To determine the I^– influx rate, the final 11 s of the data for each well was fitted with an exponential function to extrapolate initial slope (dF/dt). Reproducibility of results was confirmed by performing three independent experiments. CFBE41o^– cells co-expressing F508del-CFTR and the HS-YFP were reverse-transfected with 50 nM (final concentration) siRNAs (Stealth, Life Technologies) in the presence of lipofectamine 2000 as a transfection agent. The following day, the medium was changed, and the cells were incubated at 37 °C for additional 24 h treated with test compounds at the desired concentration, prior to processing the cells for the YFP-based functional assay.

| Structure (SMILES) | number of autophagic vacuoles (MDC signal spots) [1] | solubility [2] | aggregation in PBS buffer by NMR [2] | F508del-CFTR corrector activity compared with inh-2 (CFTR activity, primary screen) [3] | solubility at 50 µM ([2]; theoretical concentration 50 μM) | solubility at 100 µM ([2]; theoretical concentration 100 μM) |
| --- | --- | --- | --- | --- | --- | --- |
| Cc1ns/c(=N\C(=N\c2ccccc2)c2ccncc2)n1Cc1ccccc1 [Compound 34, (E)-N-((Z)-4-Benzyl-3-methyl-1,2,4-thiadiazol-5(4H)-ylidene)-N′-phenylisonicotinimidamide] | significantly decreased | 10 µM (≈ 3.85 µg/mL) | no | maintaining the activity equal to inh-2 | – | – |
| Cc1ns/c(=N\C(=N\c2ccccc2)c2ccccc2)n1Cc1ccc(F)cc1 [Compound 9, (E)-N-((Z)-4-(4-Fluorobenzyl)-3-methyl-1,2,4-thiadiazol-5(4H)-ylidene)-N′-phenylbenzimidamide] | significantly decreased | – | – | maintained the activity unaltered | – | – |
| Cc1ns/c(=N\C(=N\c2ccccc2)c2ccccc2)n1Cc1ccc(Br)cc1 [Compound 11, (E)-N-((Z)-4-(4-Bromobenzyl)-3-methyl-1,2,4-thiadiazol-5(4H)-ylidene)-N′-phenylbenzimidamide] | significantly increased | – | – | maintained the activity unaltered | – | – |
| CCC(=O)N1CCN(c2ccc(-n3c(=O)ccc4cnc5ccc(-c6cnc7ccccc7c6)cc5c43)cc2C(F)(F)F)CC1 [torin-1, reference compound] | significantly increased | – | – | – | – | – |
| CNc1cccc(Cn2c(C)ns/c2=N\C(=N\c2ccccc2)c2ccccc2)c1 [Compound 21, (E)-N-((Z)-3-Methyl-4-(3-(methylamino)benzyl)-1,2,4-thiadiazol-5(4H)-ylidene)-N′-phenylbenzimidamide] | significantly increased | – | – | did not affect the activity | – | – |
| C[C@@H]1COCCN1c1cc(=O)n2c(n1)N(Cc1cncc(Cl)c1)[C@H](C(F)(F)F)CC2 [SAR-405, reference compound] | significantly decreased | – | – | – | – | – |
| Cc1ns/c(=N\C(=N\c2ccccc2)c2ccccc2)n1Cc1ccccc1N [Compound 29, (E)-N-((Z)-4-(2-Aminobenzyl)-3-methyl-1,2,4-thiadiazol-5(4H)-ylidene)-N′-phenylbenzimidamide] | – | < 5 µM | no | comparable activity to the unsubstituted original hit inh-2 | <5 µM | <5 µM |
